Measurements: ChEMBL document CHEMBL3351667, “A chemical tuned strategy to develop novel irreversible EGFR-TK inhibitors with improved safety and pharmacokinetic profiles” (J Med Chem, 2014)

Legend:
[1] = molecular target: Epidermal growth factor receptor (Homo sapiens, UniProt P00533);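 further: inhibition of wild-type EGFR read out by HTRF, with a 5 min incubation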
Description: Inhibition of wild type EGFR (unknown origin) incubated for 5 mins by HTRF assay

[2] = molecular target: Epidermal growth factor receptor (Homo sapiens, UniProt P00533, T790M); assay type: protein assay
[3] = molecular target: Platelet-derived growth factor receptor alpha (Homo sapiens, UniProt P16234); assay: Inhibition of wild type PDGFRalpha (unknown origin) incubated for 5 mins by HTRF assay
[4] = molecular target: Platelet-derived growth factor receptor beta (Homo sapiens, UniProt P09619); assay: Inhibition of wild type PDGFRbeta (unknown origin) incubated for 5 mins by HTRF assay
[5] = molecular target: Tyrosine-protein kinase JAK2 (Homo sapiens, UniProt O60674); assay: Inhibition of wild type JAK2 (unknown origin) incubated for 5 mins by HTRF assay
[6] = molecular target: Tyrosine-protein kinase SYK (Homo sapiens, UniProt P43405); assay: Inhibition of wild type SYK (unknown origin) incubated for 5 mins by HTRF assay
[7] = molecular target: ALK tyrosine kinase receptor (Homo sapiens, UniProt Q9UM73); assay: Inhibition of wild type ALK (unknown origin) incubated for 5 mins by HTRF assay
[8] = molecular target: RAC-alpha serine/threonine-protein kinase (Homo sapiens, UniProt P31749); assay: Inhibition of wild type AKT1 (unknown origin) incubated for 5 mins by HTRF assay
[9] = molecular target: RAC-beta serine/threonine-protein kinase (Homo sapiens, UniProt P31751); assay: Inhibition of wild type AKT2 (unknown origin) incubated for 5 mins by HTRF assay
[10] = molecular target: Hepatocyte growth factor receptor (Homo sapiens, UniProt P08581); assay: Inhibition of wild type c-Met (unknown origin) incubated for 5 mins by HTRF assay
[11] = molecular target: Fibroblast growth factor receptor 2 (Homo sapiens, UniProt P21802); assay: Inhibition of wild type FGFR2 (unknown origin) incubated for 5 mins by HTRF assay
[12] = molecular target: Receptor-type tyrosine-protein kinase FLT3 (Homo sapiens, UniProt P36888); assay: Inhibition of wild type FLT3 (unknown origin) incubated for 5 mins by HTRF assay
[13] = molecular target: Tyrosine-protein kinase ABL1 (Homo sapiens, UniProt P00519); assay: Inhibition of wild type ABL (unknown origin) incubated for 5 mins by HTRF assay
Tyrosine-protein kinase ABL1, sequence (P00519 whole entry): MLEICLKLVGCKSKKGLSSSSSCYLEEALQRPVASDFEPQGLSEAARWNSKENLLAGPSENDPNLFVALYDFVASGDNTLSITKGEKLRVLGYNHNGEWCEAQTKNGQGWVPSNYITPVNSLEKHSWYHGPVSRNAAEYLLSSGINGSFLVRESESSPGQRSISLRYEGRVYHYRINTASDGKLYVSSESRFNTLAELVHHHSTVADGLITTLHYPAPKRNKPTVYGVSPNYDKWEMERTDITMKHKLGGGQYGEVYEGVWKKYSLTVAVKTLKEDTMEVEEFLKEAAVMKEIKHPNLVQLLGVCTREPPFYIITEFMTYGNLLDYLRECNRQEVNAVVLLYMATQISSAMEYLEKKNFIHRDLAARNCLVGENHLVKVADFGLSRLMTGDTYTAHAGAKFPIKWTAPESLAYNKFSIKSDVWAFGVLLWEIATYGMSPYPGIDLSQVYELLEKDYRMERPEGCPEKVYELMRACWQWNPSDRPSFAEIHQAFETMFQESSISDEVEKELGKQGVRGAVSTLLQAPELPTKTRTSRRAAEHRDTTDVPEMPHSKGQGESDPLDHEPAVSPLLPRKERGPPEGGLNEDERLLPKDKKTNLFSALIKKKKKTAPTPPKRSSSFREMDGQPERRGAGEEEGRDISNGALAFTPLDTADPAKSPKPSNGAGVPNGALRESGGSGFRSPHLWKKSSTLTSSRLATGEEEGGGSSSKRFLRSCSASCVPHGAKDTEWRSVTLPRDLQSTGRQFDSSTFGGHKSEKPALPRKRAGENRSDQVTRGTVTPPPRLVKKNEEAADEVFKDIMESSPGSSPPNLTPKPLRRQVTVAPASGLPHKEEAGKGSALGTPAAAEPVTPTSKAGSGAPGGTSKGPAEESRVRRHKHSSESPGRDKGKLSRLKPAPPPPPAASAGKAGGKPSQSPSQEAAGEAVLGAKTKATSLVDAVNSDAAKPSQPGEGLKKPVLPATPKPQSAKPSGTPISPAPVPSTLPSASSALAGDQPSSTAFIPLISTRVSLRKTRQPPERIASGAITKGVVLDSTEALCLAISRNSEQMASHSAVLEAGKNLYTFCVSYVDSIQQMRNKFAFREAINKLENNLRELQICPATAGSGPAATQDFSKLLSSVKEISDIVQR

[14] = molecular target: Proto-oncogene tyrosine-protein kinase Src (Homo sapiens, UniProt P12931); assay: Inhibition of wild type SRC (unknown origin) incubated for 5 mins by HTRF assay
Proto-oncogene tyrosine-protein kinase Src, sequence (P12931 2-536 limits assumed): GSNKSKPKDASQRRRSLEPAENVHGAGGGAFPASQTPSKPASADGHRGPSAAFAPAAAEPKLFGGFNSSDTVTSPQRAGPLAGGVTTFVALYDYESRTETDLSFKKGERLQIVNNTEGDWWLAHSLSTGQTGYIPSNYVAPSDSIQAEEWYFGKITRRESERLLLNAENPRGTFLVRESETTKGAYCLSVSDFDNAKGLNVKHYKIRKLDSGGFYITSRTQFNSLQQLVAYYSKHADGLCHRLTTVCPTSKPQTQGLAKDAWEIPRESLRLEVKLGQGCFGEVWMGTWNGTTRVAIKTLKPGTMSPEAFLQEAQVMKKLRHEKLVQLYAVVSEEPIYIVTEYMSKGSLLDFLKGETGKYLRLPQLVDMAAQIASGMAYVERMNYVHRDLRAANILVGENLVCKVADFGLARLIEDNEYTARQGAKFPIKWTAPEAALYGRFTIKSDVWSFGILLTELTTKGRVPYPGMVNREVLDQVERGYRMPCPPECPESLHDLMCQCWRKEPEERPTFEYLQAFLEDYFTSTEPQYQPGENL

[15] = Intrinsic clearance in human liver microsomes assessed per mg protein at 1 uM in presence of NADPH after 0.5 to 30 mins by LC/MS/MS method; assay type: ADME; details: read-out: CLH
[16] = Intrinsic clearance in rat liver microsomes assessed per mg protein at 1 uM in presence of NADPH after 0.5 to 30 mins by LC/MS/MS method; assay type: ADME; details: read-out: CLH
[17] = Intrinsic clearance in mouse liver microsomes assessed per mg protein at 1 uM in presence of NADPH after 0.5 to 30 mins by LC/MS/MS method; assay type: ADME; details: read-out: CLH
[18] = Intrinsic clearance in dog liver microsomes assessed per mg protein at 1 uM in presence of NADPH after 0.5 to 30 mins by LC/MS/MS method; assay type: ADME, Canis lupus familiaris; details: read-out: CLH
[19] = Intrinsic clearance in monkey liver microsomes assessed per mg protein at 1 uM in presence of NADPH after 0.5 to 30 mins by LC/MS/MS method; assay type: ADME, Macaca mulatta; details: rhesus monkey, read-out: CLH
Cytochrome P450 3A4 = Cytochrome P450 3A4 (Homo sapiens, UniProt P08684); assay: Inhibition of CYP3A4 in human hepatic microsomes after 20 mins by LC/MS/MS method; assay type: ADME, Liver
Cytochrome P450 2D6 = Cytochrome P450 2D6 (Homo sapiens, UniProt P10635); assay: Inhibition of CYP2D6 in human hepatic microsomes after 20 mins by LC/MS/MS method; assay type: ADME, Liver
Cytochrome P450 2D6, sequence (P10635 whole entry): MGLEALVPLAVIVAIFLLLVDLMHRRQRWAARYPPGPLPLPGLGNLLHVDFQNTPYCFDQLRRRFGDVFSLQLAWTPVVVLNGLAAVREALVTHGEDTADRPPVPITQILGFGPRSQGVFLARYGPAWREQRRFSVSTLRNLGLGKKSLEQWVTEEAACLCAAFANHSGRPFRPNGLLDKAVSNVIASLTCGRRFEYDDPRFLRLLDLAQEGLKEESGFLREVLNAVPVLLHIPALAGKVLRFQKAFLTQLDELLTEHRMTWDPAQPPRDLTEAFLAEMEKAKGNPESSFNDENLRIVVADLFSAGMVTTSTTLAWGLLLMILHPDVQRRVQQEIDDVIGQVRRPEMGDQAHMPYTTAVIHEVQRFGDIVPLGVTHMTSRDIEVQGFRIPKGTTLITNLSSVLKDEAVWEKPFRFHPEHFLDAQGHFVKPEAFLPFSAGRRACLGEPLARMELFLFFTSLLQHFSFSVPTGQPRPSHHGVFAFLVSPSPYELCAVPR

Cytochrome P450 2C9 = Cytochrome P450 2C9 (Homo sapiens, UniProt P11712); assay: Inhibition of CYP2C9 in human hepatic microsomes after 20 mins by LC/MS/MS method; assay type: ADME, Liver
Cytochrome P450 1A2 = molecular target: T1, Cytochrome P450 1A2 (Homo sapiens, UniProt P05177); assay: Inhibition of CYP1A2 in human hepatic microsomes after 20 mins by LC/MS/MS method; assay type: ADME, Liver
T1 sequence (P05177 whole entry): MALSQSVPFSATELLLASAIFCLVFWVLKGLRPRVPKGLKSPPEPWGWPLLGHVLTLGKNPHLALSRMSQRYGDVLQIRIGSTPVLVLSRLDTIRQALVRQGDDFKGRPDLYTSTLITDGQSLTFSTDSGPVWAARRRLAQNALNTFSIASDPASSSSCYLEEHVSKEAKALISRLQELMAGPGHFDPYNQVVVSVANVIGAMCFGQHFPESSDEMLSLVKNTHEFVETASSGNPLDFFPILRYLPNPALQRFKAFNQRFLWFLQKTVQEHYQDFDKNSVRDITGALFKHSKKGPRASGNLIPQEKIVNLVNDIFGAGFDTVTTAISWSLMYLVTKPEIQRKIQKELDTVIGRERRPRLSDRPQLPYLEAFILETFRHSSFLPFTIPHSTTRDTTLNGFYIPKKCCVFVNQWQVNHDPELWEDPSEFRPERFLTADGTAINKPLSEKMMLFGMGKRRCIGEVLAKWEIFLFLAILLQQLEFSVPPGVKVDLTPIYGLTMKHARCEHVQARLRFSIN

Cytochrome P450 2C19 = Cytochrome P450 2C19 (Homo sapiens, UniProt P33261); assay: Inhibition of CYP2C19 in human hepatic microsomes after 20 mins by LC/MS/MS method; assay type: ADME, Liver
Cytochrome P450 2C19, sequence (P33261 whole entry): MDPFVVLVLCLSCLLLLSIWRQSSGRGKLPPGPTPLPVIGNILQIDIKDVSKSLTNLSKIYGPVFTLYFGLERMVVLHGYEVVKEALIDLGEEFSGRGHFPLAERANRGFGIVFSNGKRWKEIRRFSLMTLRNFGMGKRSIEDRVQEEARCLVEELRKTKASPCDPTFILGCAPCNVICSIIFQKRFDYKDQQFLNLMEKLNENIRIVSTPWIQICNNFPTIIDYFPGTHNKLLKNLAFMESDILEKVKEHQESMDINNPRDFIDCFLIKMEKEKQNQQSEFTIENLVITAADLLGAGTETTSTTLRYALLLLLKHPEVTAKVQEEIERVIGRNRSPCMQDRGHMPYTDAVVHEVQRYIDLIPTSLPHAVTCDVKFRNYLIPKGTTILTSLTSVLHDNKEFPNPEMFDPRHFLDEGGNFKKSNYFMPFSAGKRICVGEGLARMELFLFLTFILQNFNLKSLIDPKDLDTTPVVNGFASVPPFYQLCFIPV

[20] = AUC (0 to infinity) in BALB/c mouse at 10 mg/kg, po after 24 hrs by LC/MS/MS method; assay type: ADME, organism-based, Plasma; parameters: dose 10 mg/kg, route oral, time infinity; details: BALB/c, plasma
[21] = Cmax in BALB/c mouse at 10 mg/kg, po after 24 hrs by LC/MS/MS method; assay type: ADME, organism-based; parameters: dose 10 mg/kg, route oral; details: in vivo
[22] = Apparent clearance in BALB/c mouse at 10 mg/kg, po after 24 hrs by LC/MS/MS method; assay type: ADME, organism-based; parameters: dose 10 mg/kg, route oral; details: BALB/c, in vivo, read-out: CL(app)
Mus musculus = assay: Apparent volume of distribution in BALB/c mouse at 10 mg/kg, po after 24 hrs by LC/MS/MS method; assay type: ADME, organism-based; parameters: dose 10 mg/kg, route oral; details: in vivo
[23] = Oral bioavailability in BALB/c mouse at 10 mg/kg after 24 hrs by LC/MS/MS method; assay type: ADME, organism-based; details: in vivo
hERG (KCNH2) [24] = molecular target: T2, hERG (KCNH2) (Homo sapiens, UniProt Q12809); assay: Inhibition of human ERG assessed as reduction in channel currents at 1 uM
T2 sequence (Q12809 whole entry): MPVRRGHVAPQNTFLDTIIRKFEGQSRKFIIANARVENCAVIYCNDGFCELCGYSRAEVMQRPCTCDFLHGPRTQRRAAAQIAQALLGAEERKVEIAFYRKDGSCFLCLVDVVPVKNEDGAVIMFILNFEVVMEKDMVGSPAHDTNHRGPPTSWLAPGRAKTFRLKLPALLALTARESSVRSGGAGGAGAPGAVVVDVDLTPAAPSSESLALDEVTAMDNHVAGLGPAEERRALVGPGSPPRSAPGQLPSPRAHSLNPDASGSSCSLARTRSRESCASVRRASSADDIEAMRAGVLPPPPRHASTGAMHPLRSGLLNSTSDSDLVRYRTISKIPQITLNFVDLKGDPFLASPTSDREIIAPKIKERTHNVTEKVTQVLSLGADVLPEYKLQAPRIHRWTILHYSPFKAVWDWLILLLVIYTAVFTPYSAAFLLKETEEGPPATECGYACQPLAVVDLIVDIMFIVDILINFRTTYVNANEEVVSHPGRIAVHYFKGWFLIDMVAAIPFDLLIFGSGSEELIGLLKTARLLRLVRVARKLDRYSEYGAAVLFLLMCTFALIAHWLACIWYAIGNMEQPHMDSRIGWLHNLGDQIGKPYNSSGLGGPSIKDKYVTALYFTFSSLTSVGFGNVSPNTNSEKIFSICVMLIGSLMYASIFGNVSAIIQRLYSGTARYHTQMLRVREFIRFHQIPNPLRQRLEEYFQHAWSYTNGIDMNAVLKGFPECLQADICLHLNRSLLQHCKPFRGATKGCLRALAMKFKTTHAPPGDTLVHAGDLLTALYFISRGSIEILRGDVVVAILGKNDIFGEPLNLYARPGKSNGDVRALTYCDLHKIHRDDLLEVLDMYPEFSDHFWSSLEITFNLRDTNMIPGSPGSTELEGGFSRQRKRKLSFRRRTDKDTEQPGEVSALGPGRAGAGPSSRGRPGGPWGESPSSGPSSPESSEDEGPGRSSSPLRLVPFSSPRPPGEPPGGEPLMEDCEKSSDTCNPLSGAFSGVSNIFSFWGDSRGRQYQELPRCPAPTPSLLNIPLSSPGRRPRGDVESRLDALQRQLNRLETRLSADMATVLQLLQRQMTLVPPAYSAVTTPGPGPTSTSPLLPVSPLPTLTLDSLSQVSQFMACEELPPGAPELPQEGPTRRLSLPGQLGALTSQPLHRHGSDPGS

hERG (KCNH2) [25] = molecular target: T2, hERG (KCNH2); assay: Inhibition of human ERG assessed as reduction in channel currents at 10 uM

Epidermal growth factor receptor (Homo sapiens, UniProt P00533), sequence (P00533 whole entry): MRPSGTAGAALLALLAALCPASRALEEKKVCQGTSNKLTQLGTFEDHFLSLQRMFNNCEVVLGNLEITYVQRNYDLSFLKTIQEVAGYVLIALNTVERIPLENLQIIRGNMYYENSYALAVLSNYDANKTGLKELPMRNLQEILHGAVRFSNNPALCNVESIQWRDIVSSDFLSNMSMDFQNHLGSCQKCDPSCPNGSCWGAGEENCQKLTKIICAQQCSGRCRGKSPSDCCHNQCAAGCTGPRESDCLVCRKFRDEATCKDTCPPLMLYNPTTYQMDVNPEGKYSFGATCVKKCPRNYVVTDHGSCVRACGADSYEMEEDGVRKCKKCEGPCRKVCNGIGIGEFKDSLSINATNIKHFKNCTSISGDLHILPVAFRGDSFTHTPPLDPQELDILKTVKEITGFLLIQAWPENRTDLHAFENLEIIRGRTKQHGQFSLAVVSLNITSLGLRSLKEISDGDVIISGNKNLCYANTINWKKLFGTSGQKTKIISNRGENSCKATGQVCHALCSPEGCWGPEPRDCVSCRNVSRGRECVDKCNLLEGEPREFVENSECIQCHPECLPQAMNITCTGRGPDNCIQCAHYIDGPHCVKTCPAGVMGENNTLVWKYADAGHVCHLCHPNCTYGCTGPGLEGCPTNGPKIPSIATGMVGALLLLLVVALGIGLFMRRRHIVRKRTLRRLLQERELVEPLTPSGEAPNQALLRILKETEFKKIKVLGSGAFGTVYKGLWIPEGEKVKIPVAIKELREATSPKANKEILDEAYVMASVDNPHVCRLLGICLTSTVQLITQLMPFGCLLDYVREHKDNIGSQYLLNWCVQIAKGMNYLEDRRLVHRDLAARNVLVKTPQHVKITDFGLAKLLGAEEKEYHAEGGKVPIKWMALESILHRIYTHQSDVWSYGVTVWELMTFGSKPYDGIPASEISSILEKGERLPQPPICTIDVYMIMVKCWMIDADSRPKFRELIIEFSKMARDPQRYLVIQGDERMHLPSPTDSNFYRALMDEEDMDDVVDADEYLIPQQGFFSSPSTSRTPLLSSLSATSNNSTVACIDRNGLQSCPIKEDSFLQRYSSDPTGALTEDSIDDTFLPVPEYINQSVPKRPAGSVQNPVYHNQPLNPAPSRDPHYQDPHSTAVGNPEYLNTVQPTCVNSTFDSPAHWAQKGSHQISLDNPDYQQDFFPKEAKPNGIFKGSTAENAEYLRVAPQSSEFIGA

COc1cc2ncnc(Nc3ccc(F)c(Cl)c3)c2cc1NC(=O)/C(F)=C/CN(C)C
IC50 [1]: 0.0002 µM
IC50 [2]: 0.00667 µM
IC50 [3]: 3.6 µM
IC50 [4]: 2.1 µM
IC50 [5]: > 10 µM
IC50 [6]: > 10 µM
IC50 [7]: > 10 µM
IC50 [8]: > 10 µM
IC50 [9]: > 10 µM
IC50 [10]: > 10 µM
IC50 [11]: > 10 µM
IC50 [12]: 6.81 µM
IC50 [13]: 2.26 µM
IC50 [14]: 1.73 µM
microsomal CLint at 1 µM [15]: 14 µL/min/mg
microsomal CLint at 1 µM [16]: 18 µL/min/mg
microsomal CLint at 1 µM [17]: 45 µL/min/mg
microsomal CLint at 1 µM [18]: 194 µL/min/mg
microsomal CLint at 1 µM [19]: 128 µL/min/mg
IC50 (Cytochrome P450 3A4): > 10 µM
IC50 (Cytochrome P450 2D6): > 10 µM
IC50 (Cytochrome P450 2C9): > 10 µM
IC50 (Cytochrome P450 1A2): > 10 µM
IC50 (Cytochrome P450 2C19): > 10 µM
AUC(0-inf) [20]: 7.67 µM·h
Cmax [21]: 790 nM
CL/F [22]: 50 mL/min/kg
Vz (Mus musculus): 14 L/kg
bioavailability [23]: 98.5%
inhibition at 1 µM (hERG (KCNH2) [24]): 2.55%
inhibition at 10 µM (hERG (KCNH2) [25]): 18.4%
